Reference: paper PMC6930469, “Tetrandrine Interaction with ABCB1 Reverses Multidrug Resistance in Cancer Cells Through Competition with Anti-Cancer Drugs Followed by Downregulation of ABCB1 Expression” (Molecules, 2019)

Biological target: ABCB1 (P-glycoprotein) (Homo sapiens, UniProt P08183)
Experiment: Vanadate-sensitive ABCB1 ATPase stimulation in cell membranes (PREDEASY kit); also [3H]-paclitaxel accumulation/efflux in KB-C2 cells
Format: biochemical

ABCB1 (P-glycoprotein), sequence (P08183 whole entry): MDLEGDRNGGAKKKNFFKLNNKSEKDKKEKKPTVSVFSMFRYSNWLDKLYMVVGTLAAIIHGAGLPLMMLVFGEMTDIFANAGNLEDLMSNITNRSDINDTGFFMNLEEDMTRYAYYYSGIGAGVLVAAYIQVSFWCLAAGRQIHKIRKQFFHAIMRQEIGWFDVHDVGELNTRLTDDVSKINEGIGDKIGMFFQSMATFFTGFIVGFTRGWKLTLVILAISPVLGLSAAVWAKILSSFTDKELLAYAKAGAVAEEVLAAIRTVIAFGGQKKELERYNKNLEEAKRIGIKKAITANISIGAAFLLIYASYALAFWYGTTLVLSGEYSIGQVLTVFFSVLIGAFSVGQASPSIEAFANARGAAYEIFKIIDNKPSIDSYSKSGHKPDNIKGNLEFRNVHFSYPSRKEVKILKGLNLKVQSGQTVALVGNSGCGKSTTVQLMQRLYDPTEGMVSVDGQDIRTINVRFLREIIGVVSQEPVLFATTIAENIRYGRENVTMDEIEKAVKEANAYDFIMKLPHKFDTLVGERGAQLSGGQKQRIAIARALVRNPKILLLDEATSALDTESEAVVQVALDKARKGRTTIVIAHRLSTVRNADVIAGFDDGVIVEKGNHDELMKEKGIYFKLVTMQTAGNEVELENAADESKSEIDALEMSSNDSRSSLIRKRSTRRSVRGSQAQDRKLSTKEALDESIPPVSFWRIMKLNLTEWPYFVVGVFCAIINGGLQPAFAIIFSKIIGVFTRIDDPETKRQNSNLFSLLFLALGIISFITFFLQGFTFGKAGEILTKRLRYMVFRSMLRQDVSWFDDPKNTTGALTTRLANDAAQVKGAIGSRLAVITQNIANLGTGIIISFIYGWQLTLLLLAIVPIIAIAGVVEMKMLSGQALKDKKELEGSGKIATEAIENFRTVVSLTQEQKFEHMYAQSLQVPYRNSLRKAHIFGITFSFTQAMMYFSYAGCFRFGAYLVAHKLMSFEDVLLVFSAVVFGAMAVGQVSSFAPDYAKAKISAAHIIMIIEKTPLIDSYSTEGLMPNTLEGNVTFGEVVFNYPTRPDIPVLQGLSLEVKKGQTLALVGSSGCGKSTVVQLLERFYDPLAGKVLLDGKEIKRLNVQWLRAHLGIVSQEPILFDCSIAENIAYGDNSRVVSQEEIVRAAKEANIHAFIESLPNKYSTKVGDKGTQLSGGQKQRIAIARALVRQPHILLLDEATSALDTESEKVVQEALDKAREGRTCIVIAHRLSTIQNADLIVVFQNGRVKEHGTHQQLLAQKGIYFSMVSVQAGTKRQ

EC50: 470 nM
SMILES: COc1ccc2cc1Oc1ccc(cc1)C[C@H]1c3cc(c(OC)cc3CCN1C)Oc1c(OC)c(OC)cc3c1[C@H](C2)N(C)CC3 [tetrandrine]
